tested on: not listed separately; assay: DRUGMATRIX: Calcium Channel Type L, Dihydropyridine radioligand binding (ligand: [3H] Nitrendipine); format: cell membranes, Rattus norvegicus, Wistar, Cerebral cortex, Membrane; details: Not Active = under 50% inhibition at 10 µM

SMILES | IC50 | Ki
O=C(O)P(=O)(O)O [FOSCARNET] | Not Active | Not Active
Cc1ccc(C)c(OCCCC(C)(C)C(=O)O)c1 [GEMFIBROZIL] | Not Active | Not Active
O=c1c(-c2ccc(O)cc2)coc2cc(O)cc(O)c12 [GENISTEIN] | Not Active | Not Active
CCC1=C(C)CN(C(=O)NCCc2ccc(S(=O)(=O)NC(=O)N[C@H]3CC[C@H](C)CC3)cc2)C1=O [GLIMEPIRIDE] | Not Active | Not Active
Nc1cc(-c2ccncc2)c[nH]c1=O [INAMRINONE] | Not Active | Not Active

biological target: T1, Neutrophil elastase (Homo sapiens, UniProt P08246); format: tissue-based; details: not given;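 note: inhibition of neutrophil elastase enzyme activity, measured with a p-nitroanilide-linked peptide substrate; in other assays of this panel Not Active means under 50% inhibition at 10 µM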
T1 sequence (P08246 whole entry): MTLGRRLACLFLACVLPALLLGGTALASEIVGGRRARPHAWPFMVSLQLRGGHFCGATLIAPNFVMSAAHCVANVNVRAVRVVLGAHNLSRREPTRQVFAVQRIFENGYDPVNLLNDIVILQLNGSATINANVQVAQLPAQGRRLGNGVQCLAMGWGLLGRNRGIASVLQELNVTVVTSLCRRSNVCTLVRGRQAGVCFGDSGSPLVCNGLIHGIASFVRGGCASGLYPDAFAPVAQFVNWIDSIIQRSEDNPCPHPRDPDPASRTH

SMILES | IC50
O=C(O)P(=O)(O)O [FOSCARNET] | Not Active
Cc1ccc(C)c(OCCCC(C)(C)C(=O)O)c1 [GEMFIBROZIL] | Not Active
O=c1c(-c2ccc(O)cc2)coc2cc(O)cc(O)c12 [GENISTEIN] | Not Active
CCC1=C(C)CN(C(=O)NCCc2ccc(S(=O)(=O)NC(=O)N[C@H]3CC[C@H](C)CC3)cc2)C1=O [GLIMEPIRIDE] | Not Active
Nc1cc(-c2ccncc2)c[nH]c1=O [INAMRINONE] | Not Active

biological target: Sigma non-opioid intracellular receptor 1 (Homo sapiens, UniProt Q99720); assay: DRUGMATRIX: Sigma1 radioligand binding (ligand: [3H] Haloperidol); format: cell membranes, Jurkat, Membrane; details: jurkat; Not Active = under 50% inhibition at 10 µM
Sequence (Q99720 whole entry): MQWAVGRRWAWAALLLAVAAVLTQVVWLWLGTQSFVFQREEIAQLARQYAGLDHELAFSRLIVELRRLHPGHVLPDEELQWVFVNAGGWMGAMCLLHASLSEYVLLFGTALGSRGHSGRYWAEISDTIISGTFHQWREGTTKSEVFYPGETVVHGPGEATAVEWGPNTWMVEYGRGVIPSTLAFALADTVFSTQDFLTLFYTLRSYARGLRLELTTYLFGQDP

SMILES | IC50
O=C(O)P(=O)(O)O [FOSCARNET] | Not Active
Cc1ccc(C)c(OCCCC(C)(C)C(=O)O)c1 [GEMFIBROZIL] | Not Active
O=c1c(-c2ccc(O)cc2)coc2cc(O)cc(O)c12 [GENISTEIN] | Not Active
CCC1=C(C)CN(C(=O)NCCc2ccc(S(=O)(=O)NC(=O)N[C@H]3CC[C@H](C)CC3)cc2)C1=O [GLIMEPIRIDE] | Not Active
Nc1cc(-c2ccncc2)c[nH]c1=O [INAMRINONE] | Not Active

biological target: C-C chemokine receptor type 5 (Homo sapiens, UniProt P51681); format: cell membranes, Membrane; details: hek293; note: in other assays of this panel Not Active means under 50% inhibition at 10 µM
Sequence (P51681 whole entry): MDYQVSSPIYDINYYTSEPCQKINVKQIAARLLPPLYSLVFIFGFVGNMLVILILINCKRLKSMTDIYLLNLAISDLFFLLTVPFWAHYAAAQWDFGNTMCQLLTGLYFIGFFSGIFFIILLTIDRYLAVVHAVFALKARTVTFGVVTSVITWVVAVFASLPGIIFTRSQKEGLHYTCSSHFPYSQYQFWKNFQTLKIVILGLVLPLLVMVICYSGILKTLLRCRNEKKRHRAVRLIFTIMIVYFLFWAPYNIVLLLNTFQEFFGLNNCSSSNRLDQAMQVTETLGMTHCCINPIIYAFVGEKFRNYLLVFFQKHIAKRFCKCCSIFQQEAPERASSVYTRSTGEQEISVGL

SMILES | IC50
O=C(O)P(=O)(O)O [FOSCARNET] | Not Active
Cc1ccc(C)c(OCCCC(C)(C)C(=O)O)c1 [GEMFIBROZIL] | Not Active
O=c1c(-c2ccc(O)cc2)coc2cc(O)cc(O)c12 [GENISTEIN] | Not Active
CCC1=C(C)CN(C(=O)NCCc2ccc(S(=O)(=O)NC(=O)N[C@H]3CC[C@H](C)CC3)cc2)C1=O [GLIMEPIRIDE] | Not Active
Nc1cc(-c2ccncc2)c[nH]c1=O [INAMRINONE] | Not Active

biological target: T2, Neuropeptide Y receptor type 2 (Homo sapiens, UniProt P49146); format: cell membranes, Membrane; details: kan-ts; note: in other assays of this panel Not Active means under 50% inhibition at 10 µM
T2 sequence (P49146 whole entry): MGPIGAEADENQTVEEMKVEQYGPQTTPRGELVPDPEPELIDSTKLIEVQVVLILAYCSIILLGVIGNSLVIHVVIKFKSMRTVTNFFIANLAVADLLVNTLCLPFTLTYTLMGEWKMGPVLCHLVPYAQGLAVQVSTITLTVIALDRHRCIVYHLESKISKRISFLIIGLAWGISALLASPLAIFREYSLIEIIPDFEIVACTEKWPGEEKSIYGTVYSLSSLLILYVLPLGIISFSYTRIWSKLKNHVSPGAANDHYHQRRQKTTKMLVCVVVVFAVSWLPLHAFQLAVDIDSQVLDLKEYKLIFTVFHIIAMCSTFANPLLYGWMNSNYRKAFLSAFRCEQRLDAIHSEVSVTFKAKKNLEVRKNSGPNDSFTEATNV

SMILES | IC50
O=C(O)P(=O)(O)O [FOSCARNET] | Not Active
Cc1ccc(C)c(OCCCC(C)(C)C(=O)O)c1 [GEMFIBROZIL] | Not Active
O=c1c(-c2ccc(O)cc2)coc2cc(O)cc(O)c12 [GENISTEIN] | Not Active
CCC1=C(C)CN(C(=O)NCCc2ccc(S(=O)(=O)NC(=O)N[C@H]3CC[C@H](C)CC3)cc2)C1=O [GLIMEPIRIDE] | Not Active
Nc1cc(-c2ccncc2)c[nH]c1=O [INAMRINONE] | Not Active

biological target: T3, C-X-C chemokine receptor type 2 (Homo sapiens, UniProt P25025); format: cell membranes, Membrane; details: cho-k1; note: in other assays of this panel Not Active means under 50% inhibition at 10 µM
T3 sequence (P25025 whole entry): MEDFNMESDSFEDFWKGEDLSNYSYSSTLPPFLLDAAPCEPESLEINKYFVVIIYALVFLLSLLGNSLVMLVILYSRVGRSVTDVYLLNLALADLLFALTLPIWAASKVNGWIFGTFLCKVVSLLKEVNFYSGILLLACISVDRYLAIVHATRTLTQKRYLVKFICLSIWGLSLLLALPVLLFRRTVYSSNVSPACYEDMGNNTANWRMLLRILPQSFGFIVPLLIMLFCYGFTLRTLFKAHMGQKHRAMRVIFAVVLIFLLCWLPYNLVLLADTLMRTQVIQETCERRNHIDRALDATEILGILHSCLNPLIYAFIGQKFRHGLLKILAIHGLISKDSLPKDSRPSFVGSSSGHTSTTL

SMILES | IC50
O=C(O)P(=O)(O)O [FOSCARNET] | Not Active
Cc1ccc(C)c(OCCCC(C)(C)C(=O)O)c1 [GEMFIBROZIL] | Not Active
O=c1c(-c2ccc(O)cc2)coc2cc(O)cc(O)c12 [GENISTEIN] | Not Active
CCC1=C(C)CN(C(=O)NCCc2ccc(S(=O)(=O)NC(=O)N[C@H]3CC[C@H](C)CC3)cc2)C1=O [GLIMEPIRIDE] | Not Active
Nc1cc(-c2ccncc2)c[nH]c1=O [INAMRINONE] | Not Active

biological target: T4, Nitric oxide synthase, inducible (Mus musculus, UniProt P29477); set-up: species or system Escherichia coli; details: not given
T4 sequence (P29477 whole entry): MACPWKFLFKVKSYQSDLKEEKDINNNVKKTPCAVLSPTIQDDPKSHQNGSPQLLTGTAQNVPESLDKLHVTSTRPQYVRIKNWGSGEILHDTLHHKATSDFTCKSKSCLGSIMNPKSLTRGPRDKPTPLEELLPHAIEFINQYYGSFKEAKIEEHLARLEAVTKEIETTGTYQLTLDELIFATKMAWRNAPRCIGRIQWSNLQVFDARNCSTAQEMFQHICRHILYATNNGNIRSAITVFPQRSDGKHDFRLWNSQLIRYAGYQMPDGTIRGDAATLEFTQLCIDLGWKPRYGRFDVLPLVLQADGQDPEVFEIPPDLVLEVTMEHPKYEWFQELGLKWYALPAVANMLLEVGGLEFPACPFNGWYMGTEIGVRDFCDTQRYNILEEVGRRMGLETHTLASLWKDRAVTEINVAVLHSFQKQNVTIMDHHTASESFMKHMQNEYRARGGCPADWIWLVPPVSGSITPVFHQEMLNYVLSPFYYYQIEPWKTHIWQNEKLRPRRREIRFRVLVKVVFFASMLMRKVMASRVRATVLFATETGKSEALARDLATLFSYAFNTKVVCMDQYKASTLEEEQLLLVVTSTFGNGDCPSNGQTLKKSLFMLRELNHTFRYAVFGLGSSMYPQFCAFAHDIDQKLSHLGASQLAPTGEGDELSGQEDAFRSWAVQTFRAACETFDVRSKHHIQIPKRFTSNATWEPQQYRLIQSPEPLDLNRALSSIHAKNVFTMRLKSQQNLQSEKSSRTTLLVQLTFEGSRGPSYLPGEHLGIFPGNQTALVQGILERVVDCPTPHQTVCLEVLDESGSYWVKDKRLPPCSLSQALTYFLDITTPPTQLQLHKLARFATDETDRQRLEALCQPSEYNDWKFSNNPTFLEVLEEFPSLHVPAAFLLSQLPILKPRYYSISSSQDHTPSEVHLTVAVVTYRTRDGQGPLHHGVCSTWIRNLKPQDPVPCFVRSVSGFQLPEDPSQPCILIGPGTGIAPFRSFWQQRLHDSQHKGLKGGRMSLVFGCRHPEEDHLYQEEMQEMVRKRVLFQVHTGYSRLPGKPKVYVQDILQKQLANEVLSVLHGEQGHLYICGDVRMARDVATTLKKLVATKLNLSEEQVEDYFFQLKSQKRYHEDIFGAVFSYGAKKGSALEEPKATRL

SMILES | IC50
O=C(O)P(=O)(O)O [FOSCARNET] | Not Active
Cc1ccc(C)c(OCCCC(C)(C)C(=O)O)c1 [GEMFIBROZIL] | Not Active
O=c1c(-c2ccc(O)cc2)coc2cc(O)cc(O)c12 [GENISTEIN] | Not Active
CCC1=C(C)CN(C(=O)NCCc2ccc(S(=O)(=O)NC(=O)N[C@H]3CC[C@H](C)CC3)cc2)C1=O [GLIMEPIRIDE] | Not Active
Nc1cc(-c2ccncc2)c[nH]c1=O [INAMRINONE] | Not Active
